Results taken from the NIST ThermoML archive (doi:10.1021/je500381c).

Columns and labels:
[1] = for viscosity / mass density: 100 kPa, Liquid; for mass density: Vibrating tube method; for surface tension liquid-gas: Drop volume
[2] = refractive index (Na D-line) (dimensionless); details: 101.33 kPa, Liquid, Standard Abbe refractometry
[3] = xn = mol fraction of the nth substance listed; details: for mass density / viscosity: 100 kPa, Liquid; for mass density: Vibrating tube method; for surface tension liquid-gas: Drop volume
[4] = refractive index (Na D-line) (dimensionless); xn = mol fraction of the nth substance listed; details: 100 kPa, Liquid, Standard Abbe refractometry

CC12CC3CC(C)(C1)CC(C)(C3)C2 [1,3,5-trimethyladamantane]
Details	mass density, [1] [kg/m3]	refractive index, [2]	surface tension liquid-gas, [1] [mN/m]	viscosity, [1] [mPa·s]
293.15 K	887.48	1.4736	–	2.601
298.15 K	883.99	1.4715	26.17	2.338
303.15 K	880.47	1.4695	–	2.118
308.15 K	876.94	–	–	1.93
313.15 K	873.4	1.4649	–	1.765
318.15 K	869.86	–	–	1.621
323.15 K	866.31	1.4612	–	1.494
328.15 K	862.76	–	–	1.384
333.15 K	859.2	1.4568	–	1.284

OCC1CCCCC1 [cyclohexylmethanol]
Details	mass density, [1] [kg/m3]	refractive index, [2]	surface tension liquid-gas, [1] [mN/m]	viscosity, [1] [mPa·s]
293.15 K	929.76	1.4629	–	37.75
298.15 K	926.25	1.4612	32.43	28.67
303.15 K	922.71	1.4592	–	22.34
308.15 K	919.14	–	–	17.57
313.15 K	915.53	1.455	–	14.09
318.15 K	911.88	–	–	11.43
323.15 K	908.19	1.4507	–	9.354
328.15 K	904.45	–	–	7.766
333.15 K	900.67	1.4463	–	6.462

OCC1CCCCC1 [cyclohexylmethanol] + CCC12CC3CC(CC(C3)C1)C2
x1 = 1
Details	mass density, [3] [kg/m3]	refractive index, [4]	surface tension liquid-gas, [3] [mN/m]	viscosity, [3] [mPa·s]
293.15 K	929.76	1.4629	–	37.75
298.15 K	926.25	1.4612	32.43	28.67
303.15 K	922.71	1.4592	–	22.34
308.15 K	919.14	–	–	17.57
313.15 K	915.53	1.455	–	14.09
318.15 K	911.88	–	–	11.43
323.15 K	908.19	1.4507	–	9.354
328.15 K	904.45	–	–	7.766
333.15 K	900.67	1.4463	–	6.462

CCCCCCCO [heptan-1-ol] + CCC12CC3CC(CC(C3)C1)C2
x1 = 1
Details	mass density, [3] [kg/m3]	refractive index, [4]	surface tension liquid-gas, [3] [mN/m]	viscosity, [3] [mPa·s]
293.15 K	822.28	1.4236	–	6.887
298.15 K	818.79	1.422	26.23	5.812
303.15 K	815.28	1.4203	–	4.95
308.15 K	811.74	–	–	4.245
313.15 K	808.16	1.4156	–	3.654
318.15 K	804.56	–	–	3.17
323.15 K	800.92	1.4115	–	2.768
328.15 K	797.24	–	–	2.428
333.15 K	793.52	1.4077	–	2.141

CCCCCCCO [heptan-1-ol] + CC12CC3CC(C)(C1)CC(C)(C3)C2
x1 = 1
Details	mass density, [3] [kg/m3]	refractive index, [4]	surface tension liquid-gas, [3] [mN/m]	viscosity, [3] [mPa·s]
293.15 K	822.28	1.4236	–	6.887
298.15 K	818.79	1.422	26.23	5.812
303.15 K	815.28	1.4203	–	4.95
308.15 K	811.74	–	–	4.245
313.15 K	808.16	1.4156	–	3.654
318.15 K	804.56	–	–	3.17
323.15 K	800.92	1.4115	–	2.768
328.15 K	797.24	–	–	2.428
333.15 K	793.52	1.4077	–	2.141

CC12CC3CC(C1)CC(C)(C3)C2 [1,3-dimethyladamantane] + OCC1CCCCC1
x2 = 0
Details	mass density, [3] [kg/m3]	refractive index, [4]	surface tension liquid-gas, [3] [mN/m]	viscosity, [3] [mPa·s]
293.15 K	901.58	1.4776	–	3.764
298.15 K	898.04	1.4757	27.88	3.345
303.15 K	894.48	1.4734	–	3.004
308.15 K	890.92	–	–	2.711
313.15 K	887.35	1.4691	–	2.458
318.15 K	883.77	–	–	2.237
323.15 K	880.19	1.4651	–	2.045
328.15 K	876.6	–	–	1.876
333.15 K	873.01	1.461	–	1.728

CC12CC3CC(C1)CC(C)(C3)C2 [1,3-dimethyladamantane]
Details	mass density, [1] [kg/m3]	refractive index, [2]	surface tension liquid-gas, [1] [mN/m]	viscosity, [1] [mPa·s]
293.15 K	901.58	1.4776	–	3.764
298.15 K	898.04	1.4757	27.88	3.345
303.15 K	894.48	1.4734	–	3.004
308.15 K	890.92	–	–	2.711
313.15 K	887.35	1.4691	–	2.458
318.15 K	883.77	–	–	2.237
323.15 K	880.19	1.4651	–	2.045
328.15 K	876.6	–	–	1.876
333.15 K	873.01	1.461	–	1.728

CCCCCCCO [heptan-1-ol]
Details	mass density, [1] [kg/m3]	refractive index, [2]	surface tension liquid-gas, [1] [mN/m]	viscosity, [1] [mPa·s]
293.15 K	822.28	1.4236	–	6.887
298.15 K	818.79	1.422	26.23	5.812
303.15 K	815.28	1.4203	–	4.95
308.15 K	811.74	–	–	4.245
313.15 K	808.16	1.4156	–	3.654
318.15 K	804.56	–	–	3.17
323.15 K	800.92	1.4115	–	2.768
328.15 K	797.24	–	–	2.428
333.15 K	793.52	1.4077	–	2.141

CCCCCCCO [heptan-1-ol] + CC12CC3CC(C1)CC(C)(C3)C2
x1 = 1
Details	mass density, [3] [kg/m3]	refractive index, [4]	surface tension liquid-gas, [3] [mN/m]	viscosity, [3] [mPa·s]
293.15 K	822.28	1.4236	–	6.887
298.15 K	818.79	1.422	26.23	5.812
303.15 K	815.28	1.4203	–	4.95
308.15 K	811.74	–	–	4.245
313.15 K	808.16	1.4156	–	3.654
318.15 K	804.56	–	–	3.17
323.15 K	800.92	1.4115	–	2.768
328.15 K	797.24	–	–	2.428
333.15 K	793.52	1.4077	–	2.141

OCC1CCCCC1 [cyclohexylmethanol] + CC12CC3CC(C)(C1)CC(C)(C3)C2
x1 = 1
Details	mass density, [3] [kg/m3]	refractive index, [4]	surface tension liquid-gas, [3] [mN/m]	viscosity, [3] [mPa·s]
293.15 K	929.76	1.4629	–	37.75
298.15 K	926.25	1.4612	32.43	28.67
303.15 K	922.71	1.4592	–	22.34
308.15 K	919.14	–	–	17.57
313.15 K	915.53	1.455	–	14.09
318.15 K	911.88	–	–	11.43
323.15 K	908.19	1.4507	–	9.354
328.15 K	904.45	–	–	7.766
333.15 K	900.67	1.4463	–	6.462

CCC12CC3CC(CC(C3)C1)C2 [1-ethyladamantane]
Details	mass density, [1] [kg/m3]	refractive index, [2]	surface tension liquid-gas, [1] [mN/m]	viscosity, [1] [mPa·s]
293.15 K	937.11	1.4927	–	6.371
298.15 K	933.58	1.4906	29.87	5.565
303.15 K	929.99	1.4884	–	4.903
308.15 K	926.4	–	–	4.348
313.15 K	922.81	1.4839	–	3.878
318.15 K	919.21	–	–	3.478
323.15 K	915.62	1.4802	–	3.134
328.15 K	912.01	–	–	2.838
333.15 K	908.41	1.4759	–	2.581
